Data taken from patent US20170333532A1, “ADP'ASE-ENHANCED APYRASE THERAPY FOR WOUNDS, MICROBIAL INFECTION, SEPSIS, AND HETEROTOPIC OSSIFICATION” (APT THERAPEUTICS, INC, priority 2014, published 2017).

Tests used:
Assay type in all cases: cell-based
[1] = system: Burkholderia cepacia GUIa AU0019; experiment: Killing of Burkholderia cepacia GUIa AU0019 by colistin with Apyrase Agent, CFU count; details: colistin at less than 10 μg/ml, with Apyrase Agent 2 U/ml or alone
Description: (§1) In this Example (and in subsequent Examples), the colistin is colistin sulfate salt, catalog number C4461 from Sigma-Aldrich (St. Louis, Mo.) and the apyrase is catalog number M0393L from New England BioLabs Inc. (Ipswich, Mass.).
(§2) Burkholderia cepacia GUIa AU0019 is grown in the presence of combinations of 0 and 2 U/ml of Apyrase Agent and approximately 0 to 20 μg/ml of colistin. After incubation, the numbers of viable cells are determined by counting the colony forming units (CFU) on the plate (data provided as CFU/ml). Apyrase Agent improves the efficiency of killing Burkholderia cepacia GUIa AU0019 by colistin. Apyrase Agent increases the effectiveness of colistin at less than 10 μg/ml such that less than 10 to 100 CFU/ml are detected relative to greater than 10^5 to 10^6 in the presence of colistin alone at the same concentrations.

[2] = system: Burkholderia vietnamiensis AU 10214; experiment: Killing of Burkholderia vietnamiensis AU 10214 by colistin with Apyrase Agent, CFU count; details: colistin at less than 20 μg/ml, with Apyrase Agent 2 U/ml or alone
Description: as §1
as §2, with “Burkholderia vietnamiensis AU 10214 is grown” for “Burkholderia cepacia GUIa AU0019 is grown”, “killing Burkholderia vietnamiensis AU 10214 by colistin.” for “killing Burkholderia cepacia GUIa AU0019 by colistin.”, “less than 20 μg/ml such” for “less than 10 μg/ml such”

[3] = system: Burkholderia ambifaria AU5203; experiment: Killing of Burkholderia ambifaria AU5203 by colistin with Apyrase Agent, CFU count; details: colistin at less than 20 μg/ml, with Apyrase Agent 2 U/ml or alone
Description: as §1
as §2, with “Burkholderia ambifaria AU5203 is grown” for “Burkholderia cepacia GUIa AU0019 is grown”, “killing Burkholderia ambifaria AU5203 by colistin.” for “killing Burkholderia cepacia GUIa AU0019 by colistin.”, “less than 20 μg/ml such” for “less than 10 μg/ml such”

[4] = system: Burkholderia dolosa AU0589; experiment: Killing of Burkholderia dolosa AU0589 by colistin with Apyrase Agent, CFU count; details: colistin at less than 20 μg/ml, with Apyrase Agent 2 U/ml or alone
Description: as §1
(§3) Burkholderia dolosa AU0589 is grown in the presence of combinations of 0 and 2 U/ml of Apyrase Agent and approximately 0 to 20 μg/ml of colistin. After incubation, the numbers of viable cells are determined by counting the colony forming units (CFU) on the plate (data provided as CFU/ml). Apyrase Agent improves the efficiency of killing Burkholderia dolosa AU0589 by colistin. Apyrase Agent increases the effectiveness of colistin at less than 20 μg/ml such that less than 10 to 100 CFU/ml are detected relative to greater than 10^6 to 10^7 in the presence of colistin alone at the same concentrations.

E. coli strain K12 = experiment: Effect of colistin, Apyrase Agent and combinations on E. coli growth curve
Description: The effect of colistin, Apyrase agent, and combinations thereof were examined on E. coli growth.
E. coli strain K12 was cultivated to a concentration of about 0.1 OD (A600 nm).
The effect of colistin on E. coli growth. Replicate cultures were cultivated in the presence of colistin (at a concentration of 0.25 μg/ml) and various amounts of additional Apyrase Agent buffer (Tris-biffered saline; 1, 3, 10, or 30 μL).
The effect of Apyrase Agent on E. coli growth. Replicate cultures were cultivated in the presence of Apyrase Agent at various concentrations (i.e. 1, 3, 10, or 30 U/ml).
The effect of a combination of colistin and Apyrase Agent on E. coli growth. Replicate cultures were cultivated in the presence of colistin (at a concentration of […]) combined with Apyrase Agent at various concentrations (namely 1, 3, 10, or 30 U/ml).

[5] = system: A. baumannii strain AC285; experiment: Killing of colistin-resistant A. baumannii AC285 by colistin with Apyrase Agent, CFU count; details: colistin at less than 5-10 μg/ml, with Apyrase Agent 2 U/ml or alone
Description: as §1
as §3, with “Approximately 10^5 to 10^6 CFU/ml of the colistin-resistant A. baumannii strain AC285 is” for “Burkholderia dolosa AU0589 is”, “to 32” for “to 20”, “killing A. baumannii strain AC285” for “killing Burkholderia dolosa AU0589”, “than 5-10” for “than 20”, “than 10^7” for “than 10^6”, “to 10^8” for “to 10^7”

[6] = system: Burkholderia cepacia GIIIb AU0062; experiment: Killing of Burkholderia cepacia GIIIb AU0062 by colistin with Apyrase Agent, CFU count; details: colistin at less than 20 μg/ml, with Apyrase Agent 2 U/ml or alone
Description: as §1
(§4) Burkholderia cepacia GIIIb AU0062 is grown in the presence of combinations of 0 and 2 U/ml of Apyrase Agent and approximately 0 to 20 μg/ml of colistin. After incubation, the numbers of viable cells are determined by counting the colony forming units (CFU) on the plate (data provided as CFU/ml). Apyrase Agent improves the efficiency of killing Burkholderia cepacia GIIIb AU0062 by colistin. Apyrase Agent increases the effectiveness of colistin at less than 20 μg/ml such that less than 10 to 100 CFU/ml are detected relative to greater than 10^4 to 10^5 in the presence of colistin alone at the same concentrations.

[7] = system: P. aeruginosa strain AU7443, mucoid; experiment: Killing of P. aeruginosa AU7443, mucoid by colistin with Apyrase Agent, CFU count; details: colistin at less than 20 μg/ml, with Apyrase Agent 2 U/ml or alone
Description: as §1
as §4, with “P. aeruginosa strain AU7443, mucoid” for “Burkholderia cepacia GIIIb AU0062”

Substance: colistin sulfate salt
- numbers of viable cells (CFU) [1]: 10^5 to 10^6 CFU/ml
- numbers of viable cells (CFU) [2]: 10^5 to 10^6 CFU/ml
- numbers of viable cells (CFU) [3]: 10^5 to 10^6 CFU/ml
- numbers of viable cells (CFU) [4]: 10^6 to 10^7 CFU/ml
- effect on E coli growth (E. coli strain K12; colistin 0.25 μg/ml plus Apyrase Agent buffer 1, 3, 10, or 30 μL, 24 hour period, FIG. 1): no effect
- effect on E. coli growth (E. coli strain K12; colistin 0.25 mg/ml alone or combined with Apyrase Agent 1, 3, 10, or 30 U/ml, FIG. 3): negligible effect
- numbers of viable cells (CFU) [5]: 10^7 to 10^8 CFU/ml
- numbers of viable cells (CFU) [6]: 10^4 to 10^5 CFU/ml
- numbers of viable cells (CFU) [7]: 10^4 to 10^5 CFU/ml
